Results on 20 compounds are retold here after patent US20260256772A1, “BENZOTHIAZOLE COMPOUND AND USE THEREOF” (NANJING REJU THERAPEUTICS, INC., priority 2022, published 2026).

The test system of data set [1] is wet-age-related macular degeneration. The data set can be described thus: CNV animal model of wet-age-related macular degeneration. The class given is in vivo, mice. Conditions: intravitreal (IVT), FIG. 5. On the procedure: In this test example, the efficacy of the compounds of the present disclosure was tested on wet-age-related macular degeneration in a CNV animal model.
Male mice were administered 0.5% probacaine hydrochloride (Alcon) for local anesthesia, and 1% tropicamide to dilate the pupils of the mice. Laser cauterization was performed using a laser photocoagulator (Novus Varia, LUMENIS) with a slit lamp delivery system. And artificially torn adherent glass coverslips were used as contact lenses. Bleeding spots caused by lasers were not included in the statistics. In each experimental group, six mice were analyzed with four impacts per eye to overcome inherent variability.

The subject of the next data set is senescent cells. Put plainly: Senescent cell killing, CellTiter-Glo cell viability. The class given is cell-based, human, mouse. Conditions: activity of killing senescent cells; cell type not specified. The source says:
In this test example, human non-small cell lung cancer cell line (A549 cells), human embryonic lung fibroblast cell line (IMR90 cells), human retinal pigment epithelial cells (RPE cells), mouse chondrocytes, and mouse skin fibroblasts were selected. The above cells were induced by etoposide ([…]) to obtain their senescent cells. The effect of the target compounds on the viability of normal and senescent cells above was examined, thus assessing the specific killing effect of the compounds on senescent cells above.
Briefly, senescent and normal cells above were selected and plated separately (96-well plates). […] 2A to 2E.

Data set [2] concerns idiopathic pulmonary fibrosis. The data set can be described thus: Idiopathic pulmonary fibrosis animal model (bleomycin). The class given is in vivo, SD rats. As to conditions: intraperitoneal (IP) 5 mg/kg, 3 consecutive weeks, FIG. 6; for pathology scores: H&E and Masson staining; for WBC: alveolar lavage fluid; for HYP: lung tissue. As for the experimental part:
In this test example, the efficacy of the compounds of the present disclosure was tested on idiopathic pulmonary fibrosis in an idiopathic pulmonary fibrosis animal model. Briefly, anesthetized 6-week-old SD rats were fixed on a foam board with medical tape. Firstly, the skin on the surface of the trachea was cut with surgical scissors to fully expose the trachea, and a 100-microlitre micro-syringe containing a certain volume of bleomycin (BLM 5 mg/kg) solution drawn based on the body weight of the rat was inserted into the trachea through the oral cavity to administer by slow bolus injection. After administration of the BLM solution, the foam plate was immediately rotated and shaken to distribute the BLM solution as evenly as possible in the lung tissue. Then the skin on the surface of the trachea was sutured with surgical sutures and about 0.5 to 1.0 mL of penicillin solution was dripped onto the epidermis to prevent infection of the surgical wound. After the 7th day of modelling, the compound solution of the present disclosure was administered via intraperitoneal (IP) injection (5 mg/kg) according to the weight of the rat for 3 consecutive weeks. Rats were euthanized by carbon dioxide on Day 28, the lung tissues were removed, the left alveolar lavage fluid was collected for white blood cell (WBC) counting, the right lung tissue portion was used for hydroxyproline (HYP) assay, and the remaining lung tissues were stained for pathology by H&E staining and Masson staining.

In the next data set the test system is osteoarthritis. Put plainly: Osteoarthritis animal model. As to conditions: intra-articular injection, FIG. 7. The class given is in vivo, mice. On the procedure:
In this test example, the efficacy of the compounds of the present disclosure was tested on osteoarthritis in an osteoarthritis animal model.
The osteoarthritis animal model was constructed by the following steps. The mice were anesthetized with isoflurane, and fixed. The hair on the right hind limb of the mice was shaved and the skin was disinfected with alcohol, and the skin of the joints was cut. Under an optical microscope, the inside of the right knee joint was incised longitudinally with a blade, without cutting the patellar ligament. The patellar ligament was pulled to one side with constant hemostasis by compression with sterile cotton swabs such that the joint cavity was fully exposed. Saline was added dropwise in time to avoid the drying up of the joint cavity. The excess muscle tissue was gently separated with a blunt forceps to expose the meniscus ligament. The anterior cruciate ligament was found in the depth of the joint cavity and cut with a micro scissor. Then the wound was disinfected with penicillin solution, the muscle was sutured with sterile needle and thread, and the skin tissue was finally sutured. The efficacy of the drug was determined by intra-articular injection administration. At the endpoint of the test, continued pain threshold of the plantar was detected, and the bone joints were stained with safranin fast green.

The subject of another data set is aging skin. Put plainly: Aging skin, naturally aging mouse model. As to conditions: skin application twice a week for 6 consecutive weeks, FIG. 10. The class given is in vivo, C57bl/6J mice. On the procedure: In this test example, aged female C57bl/6J mice (22 months old) were used. The drug was administered by skin application twice a week for 6 consecutive weeks.

Another data set has as its system diabetic retinopathy. Put plainly: Mouse model of diabetic retinopathy (STZ), retinal Evans blue penetration assay. The class given is in vivo. As to conditions: intravitreal (IVT), 1 μL of 200 μM at 8 and 9 weeks after STZ, FIG. 4. On the procedure:
The efficacy of the compounds of the present disclosure was studied in a mouse model of diabetic retinopathy by multiple administrations of streptozotocin (STZ). C57BL/6J mice at 6 to 7 weeks were weighed and their baseline blood glucose was measured (Sino). STZ (Sigma-Alderich) was injected intraperitoneally into the mice at 55 mg/Kg for five consecutive days. Age-matched controls were injected with buffer only. Blood glucose was measured again one week after the last STZ injection. 1 μL of the test compound (200 μM, a suspension formulated in 0.015% polysorbate 80, 0.2% sodium phosphate, 0.75% sodium chloride, pH 7.2) was injected intravitreally into the STZ-treated diabetic C57BL/6J mice at 8 and 9 weeks after STZ administration. 10 weeks after STZ treatment, the retinal Evans blue penetration assay was performed.

The test system of a further data set is Alzheimer's disease. The data set can be described thus: Alzheimer's disease APP×PS1 transgenic mouse model. The format is in vivo. As to conditions: intraperitoneal injection, 11 consecutive weeks, twice a week, FIG. 8. On the procedure: In this test example, the efficacy of the compounds of the present disclosure was tested on Alzheimer's disease in an animal model of Alzheimer's disease. Briefly, a transgenic mouse model of APP×PS1 (purchased from Cyagen Biosciences) was selected, and the compound of the present disclosure was administered by intraperitoneal injection for 11 consecutive weeks, twice a week. Alterations in amyloid in the cerebral cortex of the mice were observed.

The subject of another data set is platelets. Put plainly: Platelet toxicity test in mice (platelet count). The format is in vivo. As for the experimental part: In this test example, C57 mice were chosen to detect the effect of the target compounds on platelets.
7 to 8 weeks old […] mice were randomly divided into vehicle group and compound group. The test compound (0.5 mg/kg) or blank vehicle was administrated via single intraperitoneal injection. Blood was collected from the retroorbital venous plexus of the mice at 6 hours, and placed in a blood routine tube containing anticoagulant EDTA-K2. After shaking gently, the blood physiological indicators were measured using a hematology analyzer, with the platelet count as the target parameter for this platelet toxicity test.

Regarding `Cc1c(-c2ccc(N3CCc4cccc(C(=O)Nc5nc6ccccc6s5)c4C3)nc2C(=O)N2CCN(CCO)CC2)cnn1CC12CC3CC(CC(C3)C1)C2` [RX002], the fluorescence intensity indicators entry in data set [1] is “statistically significant improvements”. Further, in the data set on senescent cells, the concentration for half-maximal inhibition (IC50) was under 0.2 µM. Moreover, in data set [2], the pathology scores entry was “statistically significant improvements”, the WBC entry was “statistically significant improvements” and the HYP result is given as “statistically significant improvements”. In the data set on osteoarthritis, the “pathology scores of safranin fast green staining” value is recorded as “statistically significant improvements” and the “plantar mechanical pain threshold” value is on record as “statistically significant improvements”. Moreover, the “epidermal thickness scores of the skins” value with aging skin is given as “statistically significant improvements”. Besides, in the data set with diabetic retinopathy, the “vascular permeability, choroidal vascular leakage” value is listed as “improved” and the “vascular permeability, retinal vascular leakage” value was “improved”. The “Aβ42 pathogenic protein indicators” value in the data set with Alzheimer's disease is on record as “statistically significant improvements”.
As to `Cc1c(-c2ccc(N3CCc4cccc(C(=O)Nc5nc6ccccc6s5)c4C3)nc2C(=O)NC2CCN(Cc3ccccc3)CC2)cnn1CC12CC3CC(CC(C3)C1)C2` [RX003], in data set [1], the fluorescence intensity indicators entry was “statistically significant improvements”. In data set [2], the pathology scores result is on record as “statistically significant improvements”, the WBC entry is on record as “statistically significant improvements” and the HYP result was “statistically significant improvements”. Moreover, in the data set on osteoarthritis, the “pathology scores of safranin fast green staining” value is recorded as “statistically significant improvements” and the “plantar mechanical pain threshold” value is given as “statistically significant improvements”. In addition, the “epidermal thickness scores of the skins” value in the data set on aging skin is listed as “statistically significant improvements”. Further, in the data set on diabetic retinopathy, the “vascular permeability, choroidal vascular leakage” value was “improved” and the “vascular permeability, retinal vascular leakage” value was “improved”. In addition, the “Aβ42 pathogenic protein indicators” value in the data set with Alzheimer's disease is given as “statistically significant improvements”.
`Cc1c(-c2ccc(N3CCc4cccc(C(=O)Nc5nc6ccccc6s5)c4C3)nc2C(=O)N2CCNC(=O)C2)cnn1CC12CC3CC(CC(C3)C1)C2` [RX004] came in with a concentration for half-maximal inhibition (IC50) in the data set on senescent cells of 0.2 to 1 µM.
In turn, `Cc1c(-c2ccc(N3CCc4cccc(C(=O)Nc5nc6ccccc6s5)c4C3)nc2C(=O)NCc2ccco2)cnn1CC12CC3CC(CC(C3)C1)C2` [RX005] showed an IC50 with senescent cells of over 10 µM.
Same read-out and setting: for `Cc1c(-c2ccc(N3CCc4cccc(C(=O)Nc5nc6ccccc6s5)c4C3)nc2C(=O)N2CCN(C)CC2)cnn1CC12CC3CC(CC(C3)C1)C2` [RX007] the value was 0.2 to 1 µM; for `Cc1c(-c2ccc(N3CCc4cccc(C(=O)Nc5nc6ccccc6s5)c4C3)nc2C(=O)N2CCNCC2)cnn1CC12CC3CC(CC(C3)C1)C2` [RX008], 0.2 to 1 µM.
Still for that read-out and setting: for `Cc1c(-c2ccc(N3CCc4cccc(C(=O)Nc5nc6ccccc6s5)c4C3)nc2C(=O)N2CCOCC2)cnn1CC12CC3CC(CC(C3)C1)C2` [RX009] the value was under 0.2 µM; for `Cc1c(-c2ccc(N3CCc4cccc(C(=O)Nc5nc6ccccc6s5)c4C3)nc2C(=O)NCC2CCOCC2)cnn1CC12CC3CC(CC(C3)C1)C2` [RX010], 0.2 to 1 µM.
For the compound `Cc1c(-c2ccc(N3CCc4cccc(C(=O)Nc5nc6ccccc6s5)c4C3)nc2C(=O)N2CCC(CO)CC2)cnn1CC12CC3CC(CC(C3)C1)C2` [RX011], the IC50 in the data set with senescent cells is under 0.2 µM. Besides, the “platelet toxicity (platelet count)” value with platelets (mouse, in vivo, ip, 0.5 mg/kg) was “significantly improved”.
`Cc1c(-c2ccc(N3CCc4cccc(C(=O)Nc5nc6ccccc6s5)c4C3)nc2C(=O)NCCN2CCOCC2)cnn1CC12CC3CC(CC(C3)C1)C2` [RX012]: the concentration for half-maximal inhibition (IC50) in the data set on senescent cells fell in the range of 0.2 to 1 µM.
For `Cc1c(-c2ccc(N3CCc4cccc(C(=O)Nc5nc6ccccc6s5)c4C3)nc2C(=O)N2CCN(CCO)CC2)cnn1CC12CC3CC(CC(C3)C1)C2` [RX013], the 50% inhibitory concentration (IC50) in the data set with senescent cells was under 0.2 µM. Moreover, the “platelet toxicity (platelet count)” value in the data set on platelets (mouse, in vivo, ip, 0.5 mg/kg) is given as “significantly improved”.
`Cc1c(-c2ccc(N3CCc4cccc(C(=O)Nc5nc6ccccc6s5)c4C3)nc2C(=O)NCCO)cnn1CC12CC3CC(CC(C3)C1)C2` [RX014]: in the data set on senescent cells, the 50% inhibitory concentration (IC50) fell in the range of 1 to 10 µM.
In the data set with senescent cells, `Cc1c(-c2ccc(N3CCc4cccc(C(=O)Nc5nc6ccccc6s5)c4C3)nc2C(=O)NCC(=O)O)cnn1CC12CC3CC(CC(C3)C1)C2` [RX015] showed an IC50 of 1 to 10 µM.
On to `Cc1c(-c2ccc(N3CCc4cccc(C(=O)Nc5nc6ccccc6s5)c4C3)nc2C(=O)N2CCN(CCN)CC2)cnn1CC12CC3CC(CC(C3)C1)C2` [RX016], for which the IC50 in the data set with senescent cells is 0.2 to 1 µM. Also, the “platelet toxicity (platelet count)” value with platelets (mouse, in vivo, ip, 0.5 mg/kg) was “significantly improved”.
For `Cc1c(-c2ccc(N3CCc4cccc(C(=O)Nc5nc6ccccc6s5)c4C3)nc2C(=O)N2CCC(O)CC2)cnn1CC12CC3CC(CC(C3)C1)C2` [RX019], in that order: under 0.2 µM and “significantly improved”.
Compound `Cc1c(-c2ccc(N3CCc4cccc(C(=O)Nc5nc6ccccc6s5)c4C3)nc2C(=O)NCC(=O)OCc2ccccc2)cnn1CC12CC3CC(CC(C3)C1)C2` [RX020] gave a 50% inhibitory concentration (IC50) in the data set with senescent cells of over 10 µM.
Still for that read-out and setting: under `CCOC(=O)C(C)NC(=O)c1nc(N2CCc3cccc(C(=O)Nc4nc5ccccc5s4)c3C2)ccc1-c1cnn(CC23CC4CC(CC(C4)C2)C3)c1C` (centres unmarked) [RX021] stands 1 to 10 µM; under `CCOC(=O)CCC(NC(=O)c1nc(N2CCc3cccc(C(=O)Nc4nc5ccccc5s4)c3C2)ccc1-c1cnn(CC23CC4CC(CC(C4)C2)C3)c1C)C(=O)OCC` (centres unmarked) [RX022], over 10 µM.
On the same count and under the same terms, for `Cc1c(-c2ccc(N3CCc4cccc(C(=O)Nc5nc6ccccc6s5)c4C3)nc2C(=O)N2CCC(OP(=O)(O)O)CC2)cnn1CC12CC3CC(CC(C3)C1)C2` [RX302] the value was under 0.2 µM.
Regarding `Cc1c(-c2ccc(N3CCc4cccc(C(=O)Nc5nc6ccccc6s5)c4C3)nc2C(=O)N2CCN(CCOP(=O)(O)O)CC2)cnn1CC12CC3CC(CC(C3)C1)C2` [RX304], in the data set with senescent cells, the half-maximal inhibitory concentration (IC50) was under 0.2 µM. In the data set with platelets (mice, 0.5 mg/kg single intraperitoneal injection, blood at 6 hours, FIG. 1), the “platelet toxicity (platelet count)” value is “significantly improved”.
